Results as given in US5097013A, “Novel peptides possessing a macrophage chemotactic activity” (Kao Corporation, priority 1988, dated 1992).
Square brackets hold non-standard residues; d marks the D form. Peptide text beside a SMILES is read from it. * marks the point of attachment. Fmoc = O=C(OCC1c2ccccc2-c2ccccc21)*; dNle = CCCC[C@@H](N)C(=O)O

Tested on: macrophage (peritoneal exudate cells)
Test: Macrophage chemotactic activity, 48 well chemotaxis chamber
Assay type: cell-based, guinea pig
Settings: for Activity (macrophage chemotactic activity): Table 2, test described in Example 64, relative scale, Compound No. 1 = 100
Method: Macrophage chemotactic activity in the examples was determined as follows.
Peritoneal exudate cells (usually more than 95% were macrophage) collected from guinea pig in which liquid paraffin had previously been peritoneally injected 3 or 4 days before were used as macrophage in a cell concentration of 2×10^6 /ml.
A sample which activity was to be determined was charged in lower wells of a 48 well chemotaxis chamber and a polycarbonate membrane having a pore size of 5 μm was put thereon, and the macrophage suspension was charged in upper wells followed by incubation at 37° C. for 90 minutes in a CO2 incubator. After the incubation, adherent cells on the non-chemotactic surface was removed, fixed and subjected to Giemsa staining and then to inclusion treatment. Then, the cells on the chemotactic surface were microscopically (×400) counted and the cell count was made MCF activity.
The peptide synthesized in Example 5 was dissolved in 5 mM MgCl2 and the solution was suitably diluted with 0.5% FCS-containing Hanks' medium.

Molecule: CC(C)C[C@H](NC(=O)[C@H](Cc1c[nH]c2ccccc12)NC(=O)OCC1c2ccccc2-c2ccccc21)C(=O)NCC(=O)N[C@@H](CCCNC(=N)N)C(=O)N[C@@H](CCC(=O)O)C(=O)N[C@@H](CC(=O)O)C(=O)NCC(=O)N[C@@H](CO)C(=O)N[C@@H](CCC(=O)O)C(=O)O [Compound 13, Fmoc-L-Trp-L-Leu-Gly-L-Arg-L-Glu-L-Asp-Gly-L-Ser-L-Glu-OH] (Fmoc-WLGREDGSE-OH)
- Activity (macrophage chemotactic activity): < 10

Molecule: CC(C)C[C@H](NC(=O)[C@@H](N)Cc1c[nH]c2ccccc12)C(=O)NCC(=O)N[C@@H](CCCNC(=N)N)C(=O)O [Compound 27, H-L-Trp-L-Leu-Gly-L-Arg-OH] (H-WLGR-OH)
- Activity (macrophage chemotactic activity): < 10

Molecule: CC(C)C[C@H](NC(=O)[C@H](Cc1c[nH]c2ccccc12)NC(=O)OCC1c2ccccc2-c2ccccc21)C(=O)NCC(=O)N[C@@H](CCCNC(=N)N)C(=O)N[C@@H](CCC(=O)O)C(=O)N[C@@H](CC(=O)O)C(=O)O [Compound 29, Fmoc-L-Trp-L-Leu-Gly-L-Arg-L-Glu-L-Asp-OH] (Fmoc-WLGRED-OH)
- Activity (macrophage chemotactic activity): < 10

Molecule: CC(C)C[C@H](NC(=O)[C@@H](Cc1c[nH]c2ccccc12)NC(=O)OCC1c2ccccc2-c2ccccc21)C(=O)NCC(=O)N[C@@H](CCCNC(=N)N)C(=O)N[C@@H](CCC(=O)O)C(=O)N[C@@H](CC(=O)O)C(=O)O [Compound 30, Fmoc-D-Trp-L-Leu-Gly-L-Arg-L-Glu-L-Asp-OH] (Fmoc-[dW]LGRED-OH)
- Activity (macrophage chemotactic activity): < 10

Molecule: CC(C)C[C@@H](NC(=O)[C@H](Cc1c[nH]c2ccccc12)NC(=O)OCC1c2ccccc2-c2ccccc21)C(=O)NCC(=O)N[C@@H](CCCNC(=N)N)C(=O)N[C@@H](CCC(=O)O)C(=O)N[C@@H](CC(=O)O)C(=O)O [Compound 32, Fmoc-L-Trp-D-Leu-Gly-L-Arg-L-Glu-L-Asp-OH] (Fmoc-W[dL]GRED-OH)
- Activity (macrophage chemotactic activity): < 10

Molecule: CC(C)C[C@H](NC(=O)[C@H](Cc1c[nH]c2ccccc12)NC(=O)OCC1c2ccccc2-c2ccccc21)C(=O)NCC(=O)N[C@@H](CCCNC(=N)N)C(=O)N[C@H](CCC(=O)O)C(=O)N[C@@H](CC(=O)O)C(=O)O [Compound 34, Fmoc-L-Trp-L-Leu-Gly-L-Arg-D-Glu-L-Asp-OH] (Fmoc-WLGR[dE]D-OH)
- Activity (macrophage chemotactic activity): < 10

Molecule: CC(C)C[C@H](NC(=O)[C@H](Cc1c[nH]c2ccccc12)NC(=O)OCC1c2ccccc2-c2ccccc21)C(=O)NCC(=O)N[C@@H](CCCNC(=N)N)C(=O)N[C@@H](CCC(=O)O)C(=O)N[C@H](CC(=O)O)C(=O)O [Compound 39, Fmoc-L-Trp-L-Leu-Gly-L-Arg-L-Glu-D-Asp-OH] (Fmoc-WLGRE[dD]-OH)
- Activity (macrophage chemotactic activity): 10

Molecule: H-FLGREDGSE-OH [Compound 7]
- Activity (macrophage chemotactic activity): < 10

Molecule: H-KWLGREDGSE-OH [Compound 3]
- Activity (macrophage chemotactic activity): 80

Molecule: H-L-Glu-L-Asp-Gly-L-Ser-L-Glu-OH [Compound 25]
- Activity (macrophage chemotactic activity): < 10

Molecule: H-L-Trp-L-AIa-Gly-L-Arg-L-Glu-L-Asp-Gly-L-Ser-L-Glu-NH2 [Compound 44]
- Activity (macrophage chemotactic activity): < 10

Molecule: H-L-Trp-L-Leu-Gly-L-Arg-L-Glu-OH [Compound 24]
- Activity (macrophage chemotactic activity): < 10

Molecule: H-LGREDGSE-OH [Compound 51]
- Activity (macrophage chemotactic activity): < 10

Molecule: H-MWLGRED-OH [Compound 47]
- Activity (macrophage chemotactic activity): < 10

Molecule: H-WAGRED-OH [Compound 42]
- Activity (macrophage chemotactic activity): < 10

Molecule: H-WAGREDGSE-OH [Compound 9]
- Activity (macrophage chemotactic activity): < 10

Molecule: H-WGGREDGSE-OH [Compound 52]
- Activity (macrophage chemotactic activity): < 10

Molecule: H-WIIREDGSE-OH [Compound 43]
- Activity (macrophage chemotactic activity): < 10

Molecule: H-WLGKEDGSE-OH [Compound 8]
- Activity (macrophage chemotactic activity): < 10

Molecule: H-WLGLEDGSE-OH [Compound 49]
- Activity (macrophage chemotactic activity): 10

Molecule: H-WLGRED-NH2 [Compound 26]
- Activity (macrophage chemotactic activity): 10

Molecule: H-WLGRED-OH [Compound 23]
- Activity (macrophage chemotactic activity): 10

Molecule: H-WLGREDG-OH [Compound 22]
- Activity (macrophage chemotactic activity): < 10

Molecule: H-WLGREDGAE-OH [Compound 20]
- Activity (macrophage chemotactic activity): < 10

Molecule: H-WLGREDGCE-OH [Compound 17]
- Activity (macrophage chemotactic activity): < 10

Molecule: H-WLGREDGLL-NH2 [Compound 46]
- Activity (macrophage chemotactic activity): < 10

Molecule: H-WLGREDGS-OH [Compound 21]
- Activity (macrophage chemotactic activity): 10

Molecule: H-WLGREDGSD-OH [Compound 4]
- Activity (macrophage chemotactic activity): 10

Molecule: H-WLGREDGSE-NH2 [Compound 12]
- Activity (macrophage chemotactic activity): < 10

Molecule: H-WLGREDGSE-OH [Compound 1, H-L-Trp-L-Leu-Gly-L-Arg-L-Glu-L-Asp-Gly-L-Ser-L-Glu-OH]
- Activity (macrophage chemotactic activity): 100
- macrophage chemotactic activity (in words) (dissolved in 5 mM MgCl2, diluted with 0.5% FCS-containing Hanks' medium): high activities
- Macrophage Chemotactic Activity (relative activity, Table 1 (culture supernatant of hybridoma MCF-A51 = 100.0, medium alone 10.0), 3 × 10^-8 M, dissolved in 5 mM MgCl2, diluted with 0.5% FCS-containing Hanks' medium): 41.4

Molecule: H-WLGREDGSQ-OH [Compound 28]
- Activity (macrophage chemotactic activity): < 10

Molecule: H-WLGREDG[dS]E-OH [Compound 36]
- Activity (macrophage chemotactic activity): < 10

Molecule: H-WLGREEGS-OH [Compound 38]
- Activity (macrophage chemotactic activity): < 10

Molecule: H-WLGRENGSE-OH [Compound 5]
- Activity (macrophage chemotactic activity): < 10

Molecule: H-WLGRGDGSE-OH [Compound 48, H-L-Trp-L-Leu-Gly-L-Arg-Gly-L-Asp-Gly-L-Ser-L-Glu-OH]
- Activity (macrophage chemotactic activity): < 10

Molecule: H-WLGRQDGSE-OH [Compound 2]
- Activity (macrophage chemotactic activity): 80

Molecule: H-WLGRQNGSQ-NH2 [Compound 11, H-L-Trp-L-Leu-Gly-L-Arg-L-Gln-L-Asn-Gly-L-Ser-L-Gln-NH2]
- Activity (macrophage chemotactic activity): < 10

Molecule: H-WLGR[dE]DGSE-OH [Compound 41]
- Activity (macrophage chemotactic activity): < 10

Molecule: H-WLGYEDGSE-OH [Compound 18]
- Activity (macrophage chemotactic activity): 50

Molecule: H-WLG[dR]EDGSE-OH [Compound 14]
- Activity (macrophage chemotactic activity): 80

Molecule: H-WLIREDGSE-OH [Compound 6]
- Activity (macrophage chemotactic activity): < 10

Molecule: H-WPREDGSE-OH [Compound 10]
- Activity (macrophage chemotactic activity): < 10

Molecule: H-WVREDGSE-OH [Compound 50]
- Activity (macrophage chemotactic activity): < 10

Molecule: H-W[dL]GREDGSE-OH [Compound 37]
- Activity (macrophage chemotactic activity): < 10

Molecule: H-W[dNle]GREDGSE-OH [Compound 15]
- Activity (macrophage chemotactic activity): < 10

Molecule: H-[dW]LGREDGSE-OH [Compound 16]
- Activity (macrophage chemotactic activity): < 10
